{
  "source": "patent US20070122907A1",
  "about": "“Orchid culturing method” (priority 2005, published 2007)",
  "key": {"Phalaenopsis": {"system": "Phalaenopsis", "settings": "cited from earlier work"}, "Dendrobium": {"system": "Dendrobium", "settings": "application to the mature pseudobulbs, not the developing ones; cited from earlier work"}, "Phalaenopsis plants": {"system": "Phalaenopsis plants", "experiment": "Induction of spiking in potted Phalaenopsis by spraying, number of inflorescences per plant", "assay_type": "in vivo", "settings": "spray 1000 ppm, 0.1% Zipper, 1% DMSO, 100 plants", "description": "Growing conditions for the plants throughout the whole greenhouse stay are the same, except for the above discussed variations in light and temperature. Preferably this means that the plants are potted in pots with a diameter of 10-20 cm, with a growing medium of bark, coconut, Styrofoam, sphagnum moss and turf. Preferably they are stored on table-high racks, which facilitates handling. Light intensity on the surface of the pot is 3000-15000 lux (see Schapendonlk, A.H.C.M., “Belichting Phalaenopsis”, PT-Project 12170, productverslag, Productschap Tuinbouw). Normal daylight is maintained, but preferably in wintertime a lights on:lights off regime of 14:10 hours is used. Watering is preferably automated and is taken care of by a sprinkler system or any other spraying system, an ebb and flow system, via gutters running along the racks, or by submerging the pots in a water basin Nutrients and/or fertiliser are added to the water on a regular basis (EC 0,5-2, NPK 20-20-20). See also ook “Cultivation Guidelines Phalaenopsis Pot Plants, supra.\nIn June 2004 three groups of Phalaenopsis plants have been induced 6 months after potting. For testing 100 plants were treated and 100 non-treated controls were used per variety. Both groups of plants were cultured as described above. […] The results in Table 1 show the number of inflorescences per plant for the different test groups."}},
  "data": [
    {"molecule": "c1ccc(CNc2ncnc3nc[nH]c23)cc1", "note": "[6-BA-P, 6-benzylaminopurine]", "values": [
      {"measurement": "induction of off-season spiking", "setting": "Phalaenopsis", "value": "unable to induce off-season spiking"},
      {"measurement": "triggering of spiking", "setting": "Dendrobium", "value": "shown to trigger spiking"},
      {"measurement": "Average stemcount treated", "setting": "Phalaenopsis plants; variety Anthura Malaga, untreated 1.23", "value": 3.61},
      {"measurement": "Average stemcount treated", "setting": "Phalaenopsis plants; variety Brother John Red Delight, untreated 1.13", "value": 3.20},
      {"measurement": "Average stemcount treated", "setting": "Phalaenopsis plants; variety Dutch Lady, untreated 1.58", "value": 3.84},
      {"measurement": "Average stemcount treated", "setting": "Phalaenopsis plants; variety Golden Treasure, untreated 1.44", "value": 2.97},
      {"measurement": "Average stemcount treated", "setting": "Phalaenopsis plants; variety Lippe Flair 344, untreated 1.32", "value": 3.38},
      {"measurement": "Average stemcount treated", "setting": "Phalaenopsis plants; variety Maliby Leopard, untreated 1.51", "value": 3.12}
    ]}
  ]
}
